# Laboratory results as given in patent US20230183640A1, “METABOLIC INHIBITORS WITH EFFICACY FOR INHIBITING SULFIDE PRODUCTION IN HARSH ENVIRONMENTS” (MC (US) 3 LLC, priority 2020, published 2023).
# System: sulfate reducing bacteria
# Experiment: Efficacy in inhibiting H2S production from sulfate reducing bacteria
# Format: cell-based
# Settings: anaerobic conditions
# Experimental: To understand the hydrogen sulfide inhibition efficacy of the N-hydroxycarboxamide compounds of the present invention, several compounds were tested. Some compounds that can be used in this H2S inhibiting composition are disclosed in Table 2. For the testing procedures, the compounds were dissolved in DMSO, resulting in a stock solution of about 8000-100000 ppm, which was subsequently diluted in 96-well plates or 10 mL serum vials containing media and selected culture to give varying concentrations from 0.09 to 1000 ppm of the compounds in final solution for efficacy testing.
# Strains of commonly found bacteria were used for testing the efficacy of the compounds, viz. Desulfovibrio alaskensis, Desulfovibrio longus and Desulfovibrio gabonensis. Media for the cultures was also prepared by using a standard method. The cultures were aseptically used and incubated under anaerobic conditions. Two well established methods were used for testing various compounds:
# The compounds C1, C12, C14, C15 and C16 were tested individually to understand each of their efficacies in inhibiting the H2S production from sulfate reducing bacteria, under standard temperature and pressure conditions. The efficacy of compounds C14 and C15 against hydrogen sulfide production are disclosed in Example 1, Tables 6 and 7.
structure (smiles),measurement,value
O=C(CN1C(=O)c2cccc3cccc(c23)C1=O)NO [C1],efficacy for inhibiting hydrogen sulfide production,highest efficacy
